According to patent US20260263401A1, “Topical composition and uses thereof” (UNIVERSIDADE DE COIMBRA, priority 2022, published 2026):

Assays:
[1] = Cysteine depletion protocol (glutathione in solution depletion); conditions: FIG. 1A
Method: In an embodiment, Cysteine depletion Protocol-Glutathione in solution depletion protocol—“in house development protocol” was applied: • In a test tube, mix 10 μL of the 100 mM test chemical solution with 190 μL of GSH solution (20 μL of GSH 2 mM and 170 μL of PB) and Incubated at RT, protected from light, for 1 h in a tube roller (40 rpm) • […]; [test chemical]f=5 mM; [GSH]f=0.2 mM; • 20 μL of Ellman's reagent 10 mM, a thiol sensitive colorimetric reagent was added. Mix gently by tapping manually in the test tube and incubate for 10 min at RT, in a test tube rotator protected from light; • The absorbance was read in a microplate reader at 405 nm. • Note: For each assay, a fresh Glutathione stock of 50 mM (0.00768 g in 500 μL of PBS) and the second stock of 2 mM in PBS (2 μL of the […] solution+48 μl of PBS) were freshly prepared.
In an embodiment, Control and Test Chemical Preparation was applied: • DNFB is used as the positive control for the assay in every assay run. For the negative control LA is used and for the reference control three types of reference controls are included in each study: • Reference control A is made with the solvent DMSO, with incubation with Ellman's reagent and is used to calculate the maximum fluorescence or absorbance in the presence of CYS containing peptides. […]
Test Chemicals: In an embodiment, test chemicals were pre-weighted into 1.5 mL test tubes and dissolved in 1 mL of DMSO to prepare a 100 mM solution immediately before use. The weight of the test chemical to be added to the vial is determined based on the molecular weight and purity. […]
In an embodiment, for the data analysis, the percent depletion of peptide is determined by using the following formula: […]

THP-1 cells = assay: Maturation of THP-1 cells assessed by up-regulation of co-stimulatory molecules CD86 and CD54
Method: In an embodiment, the THP-1 cell line has been used as a dendritic cell (DC) surrogate for skin sensitizers hazard, following the OECD guidelines. […] The THP-1 cells are stabilized overnight at a density of 5×10^5 cells/mL. On the day after, cells are seeded in 12-well plates at a density of 8×10^5 cells/well and incubated for 24 h with medium (control), Dimethyl sulfoxide (DMSO) (allergens solvent) or with 20 mM of each inhibitor of ACD (NAC), (LYS) or mixture (NAC+LYS). In addition, sensitization is induced with the strong skin allergen 1-fluoro-2,4-dinitrobenzene (DNFB) (8 μM) or Methylisothiazolinone (MI) (100 μM) for 24 h. At the end of the incubation period, cells are washed with ice-cold PBS supplemented with 1% (v/v) inactivated FBS, centrifuged at 300×g for 5 min at 4° C. and pellets are dissolved in ice-cold PBS supplemented with 1% (v/v) inactivated FBS. Then, 100 µL of the cell suspension are incubated with, or without, 3 μL of anti-human CD54 antibody (#353111, Biolegend, San Diego, CA, USA) or anti-human CD86 (#305414, Biolegend, San Diego, CA, USA) antibody for 30 min at 4° C. […] A total of 1×10^4 living cells are considered for analysis. The CD86 and CD54 levels are analyzed by flow cytometry with the acquisition channels FL1 and FL4. Based on the geometric mean fluorescence intensity (MFI), the relative fluorescence intensity (RFI) of CD86 and CD54 for positive control cells and chemical-treated cells is calculated according to the following equation: […]

[2] = In vitro release testing (IVRT), Franz cells, cellulose membrane; format: in vitro ADME; conditions: n=6; for dose depletion: 6 h
Method: In an embodiment, release studies of the hydrogels were performed on static vertical Franz cells (PermeGear, Inc., USA), with a diffusion circular area of 0.636 cm^2 and a receptor compartment of 5 mL. For that, infinite dose conditions (1 g) of the formulations were applied in the upper compartment, separated from the receptor by a cellulose membrane (MWCO≈14 000 Da, flat width 33 mm, Sigma-Aldrich), previously hydrated in ultrapurified water for at least 30 min. Before the experiments, the system was equilibrated for a minimum of 30 min. The release medium was composed of phosphate buffer pH 5.5 (guaranteeing the maintenance of sink conditions) and continuously stirred at 600 rpm, at 37° C. A circulating water bath maintained the membrane surface temperature at 32° C. During the release studies, the donor compartment, as well as the receptor sampling arm, were carefully covered to avoid medium evaporation, as well as to conduct the experiments under occlusive conditions. At predetermined time points (0.25, 0.5, 0.75, 1, 2, 3, 4 and 6 h), 300 μl of the medium were withdrawn and immediately replenished with fresh medium. NAC and LYS were quantified by HPLC (High-performance liquid chromatography). Release studies were conducted considering n=6 samples.
In an embodiment, the cumulative amount of NAC and LYS released over time was calculated according to the equation:
[formula] • where Cn is the API (active pharmaceutical ingredient) concentration of the receptor medium at each sampling time, Ci is the API concentration of the ith sample, A the effective diffusion area (0.636 cm^2), and VO (5 mL) and Vi (300 μL) the volumes of the receptor compartment and the collected sample, respectively.
In an embodiment, the release rates were retrieved from the slope of the linear regression obtained by plotting the cumulative amount of API diffused per cm^2 as a function of the square root of time. Additionally, mass balance studies were performed to characterize the extent of dose depletion, according to the equation:
[formula] • where Qf reflects the average cumulative amount released at the end of the assay and Qi the initial amount of API placed on the membrane.
In an embodiment, NAC and LYS were quantified by reversed-phase high-pressure liquid chromatography (RP-HPLC), using a Shimadzu LC-2010HT chromatographic system, equipped with an LC-20AD quaternary pump, a SIL-20AHT autosampler, a CTO-10AS over and an SPD-M2OA photodiode array detector. […] Using an injection volume of 50 μL, NAC and LYS were determined at 200 and 215 nm and eluted at 5.4 and 2.2 min, respectively.

[3] = system: keratinocyte cell line (HaCat); assay: Metabolic activity of human keratinocytes (Resazurin Assay); format: cell-based

| SMILES | reactivity of the strong allergen DNFB towards cysteine (Glutathione depletion) [1] | CD54 and CD86 maturation levels, pre-incubation before allergen (THP-1 cells; pre-incubation (20 mM) before 24 h DNFB (8 μM) and MI (100 μM)) | dose depletion [2] | Tlag (time-lagged values) [2] | cytotoxicity (metabolic activity) [3] | levels of the co-stimulatory molecules CD54 and CD86 (RFI), incubated alone (THP-1 cells; THP-1, 24 h, 20 mM, no allergen) |
| --- | --- | --- | --- | --- | --- | --- |
| CC(=O)N[C@@H](CS)C(=O)O [NAC, n-acetyl cysteine] | significantly inhibit | significantly decrease | roughly 17% | approximately 0 h | do not display cytotoxicity |  |
| NCCCC[C@H](N)C(=O)O [LYS, lysine] | significantly inhibit |  | roughly 17% | approximately 0 h | do not display cytotoxicity | do not significantly modify |
